Measured values from patent US9249115B2, “N,N1 substituted piperazines having combined antiaggregant, anticoagulant and vasodilatory activity, and method for producing same” (Vertex Closed Joint Stock Company, priority 2011, dated 2016).

Experiments:
[1] = test system: Ristocetin-induced thrombocyte aggregation; experiment: Ristocetin-induced thrombocyte aggregation, donor human thrombocyte enriched plasm; assay type: cell-based; details: ristocetin inductor; for MA (60 c), %: amplitude at 60 s
Experimental: The study of antiaggregant and anticoagulant properties of N,N′-substituted piperazines on the sample of donor human blood. The blood was collected by donor ulnar vein punction with dry sharp needle without syringe. The administration of drugs that influence on thrombocyte function was cancelled in 7÷10 days before the experiment.
In graduated plastic centrifuge tube 1 ml of 3.8% basic trisodium citrate solution with pH=7.4 was placed. The ulnar vein was punctuated, the freely effluent blood was collected up to 10 ml mark, the mixture was instantly stirred to prevent air bubbles appearance. The collected and stabilized blood was split in two 5 ml portions in two tubes.
To obtain thrombocyte enriched plasm the stabilized blood was spinned at 1000 rpm (150 g) for 8 min at room temperature. The repeated spinning of the blood at 3200 rpm (2300 g) for 20 min at 22° C. yielded thrombocyte depleted plasm.
The study of anticoagulant activity was done within 2 h after thrombocyte enriched plasm obtaining. The plasm was normalized to achieve thrombocyte concentration of 200-250×10^9/L by addition of thrombocyte-free plasm. The concentration of thrombocytes was measured on SOLAR AR 2110 analyzer.
Antiaggregant properties of N,N′-substituted piperazines were evaluated by their influence on thrombocyte aggregation in tests with ADP-, collagen- and ristocetin-induced aggregation. To dissolve N,N′-substituted piperazines and to dilute reagents Tris-HCl-buffer with pH=7.4 was used.
As the general characteristic of thrombocyte aggregation activity the maximum amplitude (MA) of aggregation was taken on. That is the peak value of transmittance coefficient of the sample after aggregation agent introduction expressed in % relative to the transmittance of thrombocyte-free plasm. The response was registered on ascending linear segment of aggregation curve for 16 s.
The measurements were done using 4-channel CHRONO-LOG 490-4D analyzer (CHRONO-LOG, USA). The temperature in the cell was 37° C., the spinning speed of magnetic stirrer was 1200 rpm.
In a cuvette 0.5 ml of N,N′-substituted piperazine solution was placed, then 0.4 ml of normalized thrombocyte plasm was added. The mixture was stirred and incubated at 37° C. for 5 min. The cuvette was placed in aggregometer, then 0.05 ml of aggregation inductor solution was added (ADP or collagen or ristocetin). Thrombocyte aggregation was measured for 3 min.
To study ristocetin-induced thrombocyte aggregation CHRONO-PAR RISTOCETIN reagent (CHRONO-LOG, USA) was diluted with buffer solution until ristocetin concentration reached 12 mg/ml. Thrombocyte aggregation amplitude was measured in 60 s after the beginning of the reaction.

[2] = test system: experimental photothrombosis; experiment: Experimental photothrombosis model, arterial blood velocity; assay type: in vivo, Wistar male rats
Experimental: The studies were done on Wistar male rats with mass of 230±30 g (laboratory animals nursery “Rappolovo”, RAMS). The animals were kept with unlimited food (standard ration for laboratory rats K-120 by <<Inform-korm>>, Russia) and water allowance. […]
Thrombosis modeling: the drugs were introduced into left femoral vein, in 50 min afterwards 1 ml of Bengal rose A photosensitizer (Acros Organics, USA) solution was introduced with dose of 17 mg/kg [Boselli 2007, Petrischev 2009]. Then the incision of internal surface of animal right thigh about 2 cm in length was made. The section of the femoral vein about 5 mm in length was released from surrounding tissues and separated from neurovascular bundle. Beneath this section of the vein the black non-transparent plastic strip 3 mm in width was laid to screen off the vein and surrounding tissues from radiation. The irradiation was done using diode laser <<DPSS-laser>> (Diode Pumped Solid State Laser, South Korea) with 532 nm wavelength and 60 mW power. The area of irradiation was 1 mm^2, exposing time was 40 min. The blood flow in femoral artery was measured by high frequency Doppler ultrasonography method (<<Minimax-Doppler-K>> apparatus, frequency of sensor was 20 MHz). The blood velocity alteration due to irradiation was measured (Table 9).

## O=C(O)/C=C/c1ccc(Cn2ccnc2)cc1 [Ozagrel, reference compound]
[1]; 1.25 mmol/L
  (MAx-MA0): MA0 * 100% (Ozagrel: (MA0-MAx): MA0 * 100%): 8.0%
  MA (60 c), %: 58.6 ± 9.1%
[1]; 2.5 mmol/L
  (MAx-MA0): MA0 * 100% (Ozagrel: (MA0-MAx): MA0 * 100%): 28.4%
  MA (60 c), %: 45.6 ± 9.5%
[1]; 5.0 mmol/L
  (MAx-MA0): MA0 * 100% (Ozagrel: (MA0-MAx): MA0 * 100%): 44.1%
  MA (60 c), %: 35.6 ± 8.5%
[2]; 0.01 mmol/kg, 0 min of irradiation
  V, cm/s (arterial blood velocity): 10.9 ± 2.9 cm/s
[2]; 0.01 mmol/kg, 10 min of irradiation
  V, cm/s (arterial blood velocity): 5.7 ± 1.8 cm/s
[2]; 0.01 mmol/kg, 20 min of irradiation
  V, cm/s (arterial blood velocity): Absence of blood flow
[2]; 0.01 mmol/kg, 30 min of irradiation
  V, cm/s (arterial blood velocity): Absence of blood flow
[2]; 0.01 mmol/kg, 40 min of irradiation
  V, cm/s (arterial blood velocity): Absence of blood flow
[2]; 0.025 mmol/kg, 0 min of irradiation
  V, cm/s (arterial blood velocity): 9.0 ± 2.7 cm/s
[2]; 0.025 mmol/kg, 10 min of irradiation
  V, cm/s (arterial blood velocity): 5.1 ± 1.7 cm/s
[2]; 0.025 mmol/kg, 20 min of irradiation
  V, cm/s (arterial blood velocity): 3.8 ± 1.0 cm/s
[2]; 0.025 mmol/kg, 30 min of irradiation
  V, cm/s (arterial blood velocity): 5.5 ± 1.4 cm/s
[2]; 0.025 mmol/kg, 40 min of irradiation
  V, cm/s (arterial blood velocity): 5.8 ± 1.7 cm/s
